US20220323406A1, “METHODS AND COMPOSITIONS FOR DIFFERENTIATING STEM CELLS” (Massachusetts Institute of Technology, priority 2019, published 2022)

How the values were obtained:
Details in all cases: primary screen
[1] = system: ENR+CD organoids (ISC to Paneth cell differentiation); assay: Primary screen: basal (non-stimulated) lysozyme secretion LYZ.NS, 2.5-D 384-well ENR+CD organoid differentiation; format: cell-based, mouse
Description: (§1) High-throughput screening.

[2] = system: ENR+CD organoids (ISC to Paneth cell differentiation); assay: Primary screen: CCh-stimulated lysozyme secretion LYZ.S, 2.5-D 384-well ENR+CD organoid differentiation; format: cell-based, mouse
Description: as §1

ENR+CD organoids = assay: Primary screen: ATP (CellTiter-Glo 3D, CTG) cell number/viability, 2.5-D 384-well ENR+CD organoids;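 note: compounds given at plating and again on day 3 over a 6-day differentiation from ENR+CV stem-cell-enriched precursors, ATP measured on day 6, plate median as control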

Row | SMILES | Dose.FC.LYZ.NS ([1]; dose 0.08 uM) | Z.LYZ.NS (standard z score) ([1]; dose 0.08 uM) | Dose.FC.LYZ.NS ([1]; dose 0.40 uM) | Z.LYZ.NS (standard z score) ([1]; dose 0.40 uM) | Dose.FC.LYZ.NS ([1]; dose 2.00 uM) | Z.LYZ.NS (standard z score) ([1]; dose 2.00 uM) | Dose.FC.LYZ.NS ([1]; dose 10.00 uM) | Z.LYZ.NS (standard z score) ([1]; dose 10.00 uM) | Dose.FC.LYZ.S ([2]; dose 0.08 uM) | Dose.FC.LYZ.S ([2]; dose 0.40 uM) | Dose.FC.LYZ.S ([2]; dose 2.00 uM) | Dose.FC.LYZ.S ([2]; dose 10.00 uM) | Dose.FC.CTG (ENR+CD organoids; dose 0.08 uM) | Z.CTG (standard z score) (ENR+CD organoids; dose 0.08 uM) | Dose.FC.CTG (ENR+CD organoids; dose 0.40 uM) | Z.CTG (standard z score) (ENR+CD organoids; dose 0.40 uM) | Dose.FC.CTG (ENR+CD organoids; dose 2.00 uM) | Z.CTG (standard z score) (ENR+CD organoids; dose 2.00 uM) | Dose.FC.CTG (ENR+CD organoids; dose 10.00 uM) | Z.CTG (standard z score) (ENR+CD organoids; dose 10.00 uM)
1 | Cc1cc(Nc2cc(N3CCN(C)CC3)nc(Sc3ccc(NC(=O)C4CC4)cc3)n2)n[nH]1 [VX-680 (Tozasertib, MK-0457)] | −0.043 log2 fold change | −0.371 | −0.151 log2 fold change | −1.317 | −0.166 log2 fold change | −1.450 | −0.238 log2 fold change | −2.069 | −0.078 log2 fold change | −0.245 log2 fold change | −0.308 log2 fold change | −0.342 log2 fold change | −0.150 log2 fold change | −0.359 | −0.596 log2 fold change | −1.425 | −0.706 log2 fold change | −1.686 | −0.959 log2 fold change | −2.291
2 | O=c1ncn2nc(Sc3ccc(F)cc3F)ccc2c1-c1c(Cl)cccc1Cl [VX-745] | 0.092 log2 fold change | 0.805 | 0.004 log2 fold change | 0.031 | 0.021 log2 fold change | 0.186 | −0.006 log2 fold change | −0.049 | 0.154 log2 fold change | 0.054 log2 fold change | 0.058 log2 fold change | 0.038 log2 fold change | 0.186 log2 fold change |  | 0.146 log2 fold change |  | 0.018 log2 fold change |  | 0.022 log2 fold change | 
3 | CCO[C@@H]1OC(=O)C[C@@H]1NC(=O)[C@@H]1CCCN1C(=O)[C@@H](NC(=O)c1ccc(N)c(Cl)c1)C(C)(C)C [VX-765] | 0.043 log2 fold change | 0.371 | 0.036 log2 fold change | 0.317 | 0.059 log2 fold change | 0.516 | 0.022 log2 fold change | 0.190 | 0.091 log2 fold change | 0.032 log2 fold change | 0.061 log2 fold change | 0.174 log2 fold change | 0.154 log2 fold change |  | 0.232 log2 fold change |  | 0.165 log2 fold change |  | 0.254 log2 fold change | 
4 | Cc1ccc(NC(=O)C2(c3ccc4c(c3)OC(F)(F)O4)CC2)nc1-c1cccc(C(=O)O)c1 [VX-809 (Lumacaftor)] | 0.073 log2 fold change | 0.634 | −0.041 log2 fold change | −0.353 | −0.032 log2 fold change | −0.279 | −0.082 log2 fold change | −0.713 | 0.218 log2 fold change | −0.027 log2 fold change | −0.073 log2 fold change | −0.117 log2 fold change | 0.177 log2 fold change | 0.423 | −0.062 log2 fold change | −0.149 | −0.145 log2 fold change | −0.346 | 0.032 log2 fold change | 0.076
5 | COc1cc2/c(=N/c3ccc(Br)cc3F)nc[nH]c2cc1OCC1CCN(C)CC1 [Vandetanib (ZD6474)] | −0.068 log2 fold change | −0.594 | −0.091 log2 fold change | −0.792 | −0.271 log2 fold change | −2.356 | −0.298 log2 fold change | −2.594 | −0.139 log2 fold change | −0.054 log2 fold change | −0.384 log2 fold change | −0.494 log2 fold change | −0.648 log2 fold change | −1.547 | −0.366 log2 fold change | −0.874 | −0.874 log2 fold change | −2.089 | −1.206 log2 fold change | −2.880
6 | C[C@]1(c2nc3c(C(N)=O)cccc3[nH]2)CCCN1 [Veliparib (ABT-888)] | 0.075 log2 fold change | 0.649 | 0.139 log2 fold change | 1.211 | 0.023 log2 fold change | 0.203 | −0.062 log2 fold change | −0.537 | 0.105 log2 fold change | 0.179 log2 fold change | −0.016 log2 fold change | −0.136 log2 fold change | 0.128 log2 fold change | 0.307 | 0.055 log2 fold change | 0.132 | −0.024 log2 fold change | −0.057 | −0.218 log2 fold change | −0.521
7 | CCCS(=O)(=O)Nc1ccc(F)c(C(=O)c2c[nH]c3ncc(-c4ccc(Cl)cc4)cc23)c1F [Vemurafenib (PLX4032, RG7204)] | 0.090 log2 fold change | 0.786 | 0.053 log2 fold change | 0.462 | 0.047 log2 fold change | 0.411 | 0.030 log2 fold change | 0.263 | 0.120 log2 fold change | 0.150 log2 fold change | 0.055 log2 fold change | 0.022 log2 fold change | 0.124 log2 fold change | 0.297 | −0.082 log2 fold change | −0.195 | −0.006 log2 fold change | −0.014 | 0.030 log2 fold change | 0.073
8 | N#C[C@@H]1CCCN1C(=O)CNC12CC3CC(CC(O)(C3)C1)C2 [Vildagliptin (LAF-237)] | 0.148 log2 fold change | 1.285 | 0.230 log2 fold change | 2.004 | 0.170 log2 fold change | 1.478 | 0.097 log2 fold change | 0.846 | 0.099 log2 fold change | 0.113 log2 fold change | 0.038 log2 fold change | 0.013 log2 fold change | 0.232 log2 fold change | 0.553 | 0.229 log2 fold change | 0.547 | 0.150 log2 fold change | 0.358 | 0.339 log2 fold change | 0.811
